Assay results as given in US9605015B2, “Polyene compound, method for preparing the same, and antifungal drug comprising novel polyene compound as active ingredient” (INHA-INDUSTRY PARTNERSHIP INSTITUTE, priority 2011, dated 2017).
≈ marks a conversion by molar mass, not a printed value.

Assays:
[1] = test system: Candida albicans ATCC 10231; experiment: Antifungal activity analysis (growth inhibition in microtiter plates); assay type: cell-based; conditions: Table 5
Protocol: The test organism used for the polyene macrolide bioactivity assays was Candida albicans ATCC 10231, which was grown in 120 μl of YM medium without NaCl (with an inoculum of 1,000 CFU per well) and 30 μl of diluted polyene macrolide samples. The antibiotics were diluted in methanol in series to ensure that concentrations resulting in no inhibition to complete inhibition of the growth of the test organism were used. The test organism cultures with diluted antibiotics were then incubated in 96-well microtiter plates at 30° C. without shaking. After 12, 14, and 16 h, growth was measured based on the optical density at 492 nm using a TECAN Infinite F50 microtiter plate reader. The optical density was plotted against the antibiotic concentration, and the MIC at which 50% of isolates are inhibited (MIC50) was estimated from the regression curve at 50% growth inhibition.

[2] = test system: erythrocytes in defibrinated horse blood; experiment: In vitro measurement of hemolytic activity; assay type: cell-based; conditions: 37° C., 30 min
Protocol: The hemolytic assay for the polyene macrolides was performed by monitoring the ability of the macrolides to cause lysis of erythrocytes in defibrinated horse blood (Gene. 111:61-68, 1992). Samples (0.1 ml) with different polyene macrolide concentrations (10 to 500 μg/ml in DMSO) were prepared from stock solutions of the purified polyenes (5 mg/ml in DMSO). The diluted samples were mixed with 0.9 ml horse blood-phosphate-buffered saline (PBS), which consisted of PBS buffer containing 2.5% defibrinated horse blood (KisanBiotech, Korea), and incubated in a water bath at 37° C. Samples were collected at 30 min, centrifuged at 5,000 rpm for 5 min, and the OD540 was measured. One hundred percent hemolysis was defined as the OD540 value obtained from a suspension of 2.5% horse blood in distilled water, and 0.9 ml horse blood-PBS with the addition of 0.1 ml DMSO was used as a blank. Each experiment was performed in triplicate, and samples containing nystatin were used as standards.

[3] = Solubility measurement in aqueous Tris-HCl buffer by UV spectrophotometry; assay type: physicochemical; conditions: aqueous 10 mmol Tris-HCl buffer (pH 7.0)
Description: The polyene region of nystatin is extremely non-polar, which is presumed to promote hydrophobic interactions with sterols within the fungal cell membrane, and orients the polyol component of the molecule toward the internal aqueous channel. However, this low polarity also leads to significant difficulties in administration during human therapy. To investigate the effect of the additional N-acetyl-glucosamine moiety, the present inventors tested the solubility of the purified NPP as well as the nystatin A1 as a reference in an aqueous buffer solution of 10 mmol Tris-HCl (pH 7.0) using spectrophotometric methods.
Particularly, stock solutions of nystatin A1 (Sigma, N6261) standard (1.2 mg/ml) and the purified NPP (12 mg/ml) were prepared in methanol. A 100 μl portion of each stock was freeze-dried under vacuum for 24 h. Either 50 μl (nystatin A1) or 2 μl (NPP) of aqueous 10 mmol Tris-HCl buffer (pH 7.0) was added to the dry polyenes, and the solution was saturated by extensive (>15 min) vortexing. After centrifugation, polyene concentrations in the solution were determined by measuring UV absorbance spectra on SHIMADZU UV-1601 UV/Vis spectrophotometer after appropriate dilution. Specifically, the characteristic tetraene UV peak at 306 nm was used for quantification with experimentally determined extinction coefficients (J. Med. Chem. 49:2431-2439, 2006).

C[C@@H]1[C@H](O)[C@@H](C)/C=C/C=C/CC/C=C/C=C/C=C/C=C/C(O[C@H]2O[C@H](C)[C@@H](O)[C@H](N)[C@@H]2O)CC2O[C@](O)(CC(O)C(O)CCC(O)CC(O)CC(O)CC(=O)O[C@H]1C)CC(O)C2C(=O)O (some centres unmarked) [nystatin, nystatin A1]
Antifungal activity (IC50, μg/ml) [1]: 0.43 ± 0.02 µg/mL
HC50 ([2]; 2.5% defibrinated horse blood in PBS): 33 µg/mL
Hemolytic activity (HC50, μg/ml) ([2]; Table 5, horse blood): 33 ± 0.54 µg/mL
solubility ([3]; Table 5): 110 ± 30 µg/mL (≈ 119 µM)
solubility [3]: 110 µg/mL (≈ 119 µM)
